The results in this text go back to patent publication US20050137243A1, “Antagonists of melanin concentrating hormone effects on the melanin concentrating hormone receptor” (priority 2003, published 2005).

A short description of data set [1]: Pharmacokinetic drug levels in whole brain after oral dose in DIO-mice. The format is in vivo. As to conditions: 10 mpk PO, 0.5-24 h.
Data set [2] can be described thus: Efficacy: % weight loss in diet-induced obese (DIO) mice after two weeks of dosing. Type of data set: in vivo. As to conditions: 100 mpk BID, PO, relative to vehicle control animals.

For the molecule `O=C(Nc1ccc(Oc2ccccc2)cc1)Nc1ccc2c(cnn2CCN2CCCC2)c1` [Example 24, N-(4-phenoxyphenyl)-N′-[1-(2-pyrrolidin-1-ylethyl)-1H-indazol-5-yl]urea], the “Brain Conc. AUC” value in data set [1] is 1428 ng·h/g. The “DIO Mice % weight loss @ 14 days” value in data set [2] is 15%.
